The format of data set [1] is in vitro ADME. The settings on record: human, microsomes, 1 μM, pH 7.4. On the procedure: (§1) Analytical LC/MS/MS systems: Agilent 1200 Series vacuum degasser, dual-injection pump, orifice autosampler, column incubator, charged spray ionization (ESI) source, and Agilent G6430 three-stage quadrupole mass spectrometer. The quantitative analysis is performed in the MRM mode, with the following MRM conversion parameters:
Analytical Agilent Poroshell HPH-C18: 2.1×50 mm, 2.7 μM column, 20 μL of sample was injected. Conditions: mobile phase with ammonium formate+0.1% formic acid (A) and methanol+2 mM ammonium formate+0.1% formic acid (B). The flow rate was 0.3 mL/min. The mobile phase gradient is as follows: […]
Agilent 6330 Series LC/MS/MS spectrometer was equipped with G1312A binary injection pump, G1367A automatic sampler and MS/MS detector; LC/MS/MS was used with ESI source. Suitable cationic model treatments and MRM conversion were used for each analyte using standard solution for optimal analysis. The Agilent Poroshell HPH-C18 column was used during the analysis with a specification of 100×4.6 mm I.D., 5 μM. The mobile phase included ammonium formate+0.1% formic acid (A) and methanol+2 mM ammonium formate+0.1% formic acid (B). The flow rate was 0.3 mL/min; the column temperature was maintained at 40° C.; 20 μL of sample was injected.
A human liver microsomal incubation system was used for the testing. The incubation mixtures included human or rat liver microsomes (0.5 mg protein/mL), the tested compound was provided at 1 μM. The compound was dissolved in DMSO and diluted with acetonitrile water and mixed with a mixture of liver microparticle potassium phosphate buffer solution (pH=7.4). The above operations were done on wet ice, and incubated in a thermostatic incubator at 37° C. At different time points (0, 60 and 120 min), ice-cold acetonitrile was added to terminate the reaction. NADPH was not added during the reaction, and the effect of esterase on its conversion was examined. Samples were stored at −80° C. until LC/MS/MS analysis was performed.
The conversion of the compounds of the disclosure to active adamantane compound, which is memantine in the human liver microsome was determined by LC/MS/MS.

Data set [2] can be described thus: In vivo pharmacokinetics after intramuscular administration in rats. As to the method: Legend format: tested compound/dose (mg/kg)/converted active adamantane compound, which is memantine.
as §1
Waters XBridge TMC18, 2.1×30 mm, 3.5 μM column; 20 μL of sample was injected in each run. Conditions: The mobile phase included […]+2 mM ammonium formate+0.1% formic acid (A) and methanol+2 mM ammonium formate+0.1% formic acid (B). The flow rate was 0.35 mL/min. The mobile phase gradient is as follows: […]
Additional instruments and reagents included Agilent 6330 Series LC/MS/MS spectrometer equipped with a G1312A Binary Injection Pump, G1367A autosampler and MS/MS Detector for analysis; LC/MS/MS spectrometer with ESI source. Suitable cationic model treatments and MRM conversion were used for each analyte using standard solution for optimal analysis. Waters XBridge TMC18 was used with specifications of 2.1×30 mm, 3.5 μM. The reaction was carried out with ammonium formate+2 mM ammonium formate+0.1% formic acid (A) and methanol+2 mM ammonium formate+0.1% formic acid (B). The flow rate was 0.35 mL/min; the column temperature was maintained at 40° C.; 10 μL of sample was injected.
This example conducted pharmacokinetic studies of various compounds of the present disclosure in rats. The compounds were subjected to pretreatment including grinding and sieving, and were then added to a mixture formed by dissolving and dispersing in Tween-20 and/or Span-20. The mixtures were uniformly dispersed and fixed. The suspensions were pulverized by a ball mill […]. Memantine (MJG, 17.5 mg/kg) or tested compounds (75 or 37.5 mg/kg) were administered by intramuscular administration. Whole blood was collected at 0.25, 1, 2, 5, 7, 24, 48, 72, 96, 120, 148 and 196 h, was centrifuged at 12,000 g for 2 minutes. Plasma was collected and stored at −20° C. or −70° C. until the LC/MS/MS analysis was performed.

Setting [3] is: rat, im, solution, 17.5 mg/kg, memantine in plasma.

Where two headings read alike, the source gives them in different places.

With `CC12CC3CC(C)(C1)CC(NC(=O)OCOC(=O)Cc1cccc4ccccc14)(C3)C2` [Compound 1], the “Percentage of Remaining or Converted Active Adamantane Compound” value in data set [1] (1 h) amounted to 108%; in data set [1] (2 h) it was 101%.
As a reminder, the AUC(0-t) is exposure summed from dosing to a finite time, without extrapolation to infinity. Low readings indicate low exposure, high ones high exposure. The Cmax is the maximum level reached in the sampled fluid or tissue. In general, Tmax refers to the time at which the peak concentration occurs. With `CC12CC3CC(C)(C1)CC(N)(C3)C2` [MJG, memantine], in data set [2] (setting [3]), the AUC(0-t) was 11800 ng·h/mL, the peak level (Cmax) was 1940 ng/mL and the Tmax turned out to be 1.33 h. The half-life in data set [2] (rat, plasma, im, 17.5 mg/kg, solution, 17.5 mg/kg, memantine in plasma, read-out: T½ (converted)) is approximately 4 h. In data set [2] (solution, 17.5 mg/kg, memantine in plasma), this compound gave a T½ of 4 h. Further, the “Percentage of Remaining or Converted Active Adamantane Compound” value in data set [1] (1 h) came to 98%. Further, the “Percentage of Remaining or Converted Active Adamantane Compound” value in data set [1] (2 h) is 98%.
As to `CCCCCCCCCCCCCCCC(=O)OCOC(=O)NC12CC3CC(C)(CC(C)(C3)C1)C2` [Compound 4], the entries for the “Percentage of Remaining or Converted Active Adamantane Compound” value in data set [1] (1 h) and in data set [1] (2 h) were 25.3% and 34%, respectively.
For `CCCCCCCCCCCC(=O)OCOC(=O)NC12CC3CC(C)(CC(C)(C3)C1)C2` [Compound 3], the “Percentage of Remaining or Converted Active Adamantane Compound” value in data set [1] (1 h) and in data set [1] (2 h) was 35.6% throughout.
In the case of `CC12CC3CC(C)(C1)CC(NC(=O)OCOC(=O)c1ccccc1)(C3)C2` [Compound 2], the T½ result in data set [2] (suspension, 75 mg/kg, converted memantine in plasma) is “too high to be measurable”. In addition, the “Percentage of Remaining or Converted Active Adamantane Compound” value is given as 134% in data set [1] (1 h) and 118% in data set [1] (2 h).

These data come from patent US10800734B2, “Memantine compounds and their preparation and uses thereof” (Sunshine Lake Pharma Co., Ltd., priority 2016, dated 2020).
